Assays:
[1] = tested on: p-C-raf, pErk, pAkt in A549 cells; experiment: Western blot of signaling pathways downstream to K-RAS; format: cell-based; conditions: A549, 2.5 μM, 5 μM and 10 μM, compared with untreated cells
Description: Equal amounts of protein (20-40 μg per lane) were separated with a 10% SDS-PAGE gel, then the separated proteins were transferred to a Nitrocellulose (NC) membrane, which was then exposed to 5% non-fat dry milk in TBS containing 0.1% Tween 20 (0.1% TBST) for 1 hour at room temperature with constant agitation, followed by overnight incubation at 4° C. with primary antibodies, after washing three times by TBST, the membranes were incubated with secondary rabbit or mouse fluorescent antibodies, the signal intensity of the membranes was detected by anLI-COR Odessy scanner (Belfast, Me., USA). All primary antibodies were diluted 1:1000, while their recommended secondary antibodies were diluted 1:10000.

[2] = tested on: normal lung epithelial cells (CCD19-Lu); experiment: MTT cell viability assay, 72 h; format: cell-based; conditions: Homo sapiens, CCD 19Lu
Description: (§1) A549 (K-RAS^G12S), H358 (K-RAS^G12C), H2122 (K-RAS^G12C) and CCD19-Lu cells were obtained from the American Type Culture Collection and cultured in an environment of 5% CO2 at 37° C. in RPMI-1640 medium supplemented with 10% fetal bovine serum (FBS), 100 units/mL penicillin, and 100 μg/mL streptomycin.
(§2) 3000 cells were seeded on 96-well plates, cultured overnight for cell adhesion, then treated with DMSO or various concentrations of compound of Formula (VII) for 72 h, at the end of the incubation, each well was added with 10 μL of MTT (5 mg/mL; Sigma), and the plates were incubated for an additional 4 h, then the crystals were dissolved in 100 μL of the resolved solution (10% SDS and 0.1 mM HCL). The absorbance at 570 nm was measured using a microplate reader (Tecan, Morrisville, N.C., USA). The cell viability was calculated relative to untreated controls, with results based on at least three independent experiments. […] The IC50 in CCD19-Lu is more than 20 μM (Table 1).

H358 (K-RAS G12C) cells = experiment: MTT cell viability assay, 72 h; format: cell-based; conditions: Homo sapiens, NCI-H358
Description: as §1, §2

A549 (K-RAS G12S) cells = experiment: MTT cell viability assay, 72 h; format: cell-based; conditions: Homo sapiens
Description: as §1, §2

H2122 (K-RAS G12C) cells = experiment: MTT cell viability assay, 72 h; format: cell-based; conditions: Homo sapiens, NCI-H2122
Description: as §1, §2

A549 cells [3] = experiment: Colony formation assay; format: cell-based; conditions: 10 days
Description: Still further, the inhibitory effect of the compound of Formula (VII) on the colony formation in A549 cells has been analyzed to provide further evidence that the compound of Formula (VII) inhibits the formation of colonies of cancerous cells to an exceptional degree, too. A549 cells were seeded on a six-well plate at a density of 500 cells per well. […] After 10 days, the colonies were fixed with 4% paraformaldehyde and stained with a 0.5% (0.5% w/v) crystal violet solutions, the number of colonies >50 was counted under a dissecting microscope.

A549 cells [4] = experiment: Annexin V-FITC/PI apoptosis assay by flow cytometry; format: cell-based; conditions: A549, 2.5 μM, 5 μM or 10 μM, 48 h, compared with control group
Description: Apoptosis was measured using the Annexin V-FITC apoptosis detection kit (BD Biosciences, San Jose, Calif., USA), according to the manufacturer protocol. […] Subsequently, cells were trypsinized, washed with PBS and stained with 100 μL binding buffer containing 2 μL Annexin-V FITC and 5 μL propidine iodide (PI) incubated in the dark at room temperature for 15 min, before further addition of 400 μL of 1× Annexin-binding buffer. The stained cells were analyzed quantitatively using a Flow Cytometer (BD Biosciences, San Jose, Calif., USA). Data were analyzed by Flow Jo software.

[5] = tested on: active (GTP-bound) K-RAS in A549 cells; experiment: K-RAS activation (GTP pull down) assay with immunoblotting; format: cell-based
Description: Further, a K-RAS activation assay with subsequent immunoblotting has been carried out. […] Cells were lysed in lysis buffer, adjusted the volume of each sample to 1 mL with 1× Assay Lysis Buffer, 40 μL of the Raf1 RBD Agarose bead slurry were added to each sample quickly, follow by incubating the tubes at 4° C. for 1 hour with gentle agitation, beads were washed three times with cold lysis buffer, and bounded protein was resuspended in 40 μL of 2× reducing SDS-PAGE sample buffer and heated at 100° C. for 5 min. The samples were then run by SDS-PAGE followed by immunoblotting. Total amount of RAS being pulled down were compared between the control and treatment groups.
The compound of Formula (VII) inhibited K-RAS binding to GTP in A549 cells.

[6] = tested on: human pancreatic ductal adenocarcinoma cells; conditions: in vitro and in vivo; cited from earlier work

Row | IC50 (H358 (K-RAS G12C) cells) [µM] | IC50 (A549 (K-RAS G12S) cells) [µM] | IC50 (H2122 (K-RAS G12C) cells) [µM] | Compound | level of p-C-raf [1] | level of pAkt [1] | level of pErk [1] | IC50 [2] [µM] | colony formation capacity (A549 cells [3]; A549, 1.25 μM, 2.5 μM, 5 μM or 10 μM) | colonies formed (A549 cells [3]; A549, 10 μM) | cell apoptosis (A549 cells [4]) | amount of K-RAS being pulled down (GTP-bound K-RAS) ([5]; A549, 10 μM, 48 h, compared to untreated control) | proliferation of human pancreatic ductal adenocarcinoma cells [6] | GTP binding with K-RAS ([5]; A549, 4 μM, positive control)
1 | 2.4 ± 2.1 | 5.59 ± 1.27 | 3.35 ± 2.74 | CC(C)(C)c1cc2oc3c(c2c(/C=N/NC(=O)c2ccc(O)cc2O)c1O)CCCC3 [compound of Formula (VII)] | decreased | decreased | decreased | > 20 | significantly inhibited | no visible colonies | induced significant cell apoptosis | caused a decrease |  | 
2 |  |  |  | c1ccc(Cn2c(-c3ccc(OC[C@H](C4CCNCC4)n4c(-c5ccccc5)nc5ccccc54)cc3)nc3ccccc32)cc1 [Deltarasin, reference compound] |  |  |  |  |  |  |  |  | strongly suppressed | suppression

Reference: patent publication US20170135979A1, “PDE-DELTA INHIBITOR FOR THE TREATMENT OF CANCER” (Macau University of Science and Technology, priority 2015, published 2017)
